Assay [1] concerns the target T1, KRAS G12S (Homo sapiens, UniProt P01116, G12S).
T1 construct: made in house; host or cells: E. coli BL21 (DE3)
In words: HTRF assay, interaction of GST-tagged K-Ras with His-tagged hSOS1 (KRAS G12S). It counts as biochemical. Particulars: <500 nM, read-out: Inhibition of KRAS G12S (IC50). The source says: (§1) This assay can be also used to assess a selective inhibition or reduction of signaling output of a mutant Ras protein relative to a wildtype, or relative to a different mutant Ras protein. For example, the equilibrium interaction of wildtype KRAS or K-Ras mutant (e.g., wildtype or a mutant thereof) with SOS1 (e.g., hSOS1) can be assessed as a proxy or an indication for the ability of a subject compound to bind and inhibit Ras protein. The HTRF assay detects from (i) a fluorescence resonance energy transfer (FRET) donor (e.g., antiGST-Europium) that is bound to GST-tagged K-Ras mutant to (ii) a FRET acceptor (e.g., anti-6His-XL665) bound to a His-tagged hSOS1.
(§2) The assay buffer can contain ˜5 mM HEPES pH 7.4, ˜150 mM NaCl, ˜1 mM DTT, 0.05% BSA and 0.0025% (v/v) Igepal. A Ras working solution is prepared in an assay buffer containing typically a suitable amount of the protein construct (e.g., GST-tagged K-Ras mutant) and the FRET donor (e.g., antiGST-Eu(K) from Cisbio, France). A SOS1 working solution is prepared in an assay buffer containing suitable amount of the protein construct (e.g., His-hSOS1) and the FRET acceptor (e.g., anti-6His-XL665 from Cisbio, France). A suitable amount of the protein construct will depend on the range of activity or range of IC50 values being detected or under investigation. For detecting an IC50 within a range of 500 nM, the protein constructs of the same range of molarity can be utilized.
(§3) A fixed volume of DMSO with or without test compound is transferred into a 384-well plate. Ras working solution is added to all wells of the test plate. SOS1 working solution is added to all wells except for those that are subsequently filled with inhibitor control solution. Upon incubation for about 10 minutes or longer, the fluorescence is measured with a M1000Pro plate reader (Tecan) using HTRF detection (excitation 337 nm, emission 1: 620 nm, emission 2: 665 nm). Compounds are tested in duplicate at different concentrations (for example, 10 μM, 2.5 μM, 0.63 μM, 0.16 μM, 0.04 μM, 0.01 μM test compound). The ratiometric data (i.e., emission 2 divided by emission 1) is used to calculate IC50 values against Ras using GraphPad Prism (GraphPad software). Signaling output measured in terms of IC50 values can be obtained and a ratio of IC50 against one mutant relative to another mutant can be calculated. For instance, a selective reduction of K-Ras G12S signaling output can be evidenced by a ratio greater than one. In particular, a selective reduction of K-Ras G12S signaling relative to K-Ras WT signaling is evidenced if the ratio of IC50 (against K-Ras WT) to IC50 (against K-Ras G12S) is greater than 1.
On the technique in general: In TR-FRET formats the signal depends on donor and acceptor labels being close together.

Assay [2] addresses T2, KRAS WT (Homo sapiens, UniProt P01116).
T2 construct: made in house; host or cells: E. coli BL21 (DE3)
In words: HTRF assay, interaction of GST-tagged K-Ras with His-tagged hSOS1 (KRAS wildtype). It counts as biochemical. As to conditions: <500 nM, read-out: Inhibition of KRAS WT (IC50).
Source text: as §1, §2, §3

pIC50: −log10 of the molar value.

As a reminder, the pIC50 is −log10 of the IC50, conventionally taken in molar units.

T2 sequence (P01116 1-188 isoform P01116-2): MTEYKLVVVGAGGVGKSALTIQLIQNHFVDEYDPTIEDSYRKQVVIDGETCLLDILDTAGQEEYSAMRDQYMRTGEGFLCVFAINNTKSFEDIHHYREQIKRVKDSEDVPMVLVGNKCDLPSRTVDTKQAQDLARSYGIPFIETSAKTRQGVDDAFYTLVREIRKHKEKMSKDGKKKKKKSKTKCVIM
T1 sequence (P01116 1-188 isoform P01116-2 G12S): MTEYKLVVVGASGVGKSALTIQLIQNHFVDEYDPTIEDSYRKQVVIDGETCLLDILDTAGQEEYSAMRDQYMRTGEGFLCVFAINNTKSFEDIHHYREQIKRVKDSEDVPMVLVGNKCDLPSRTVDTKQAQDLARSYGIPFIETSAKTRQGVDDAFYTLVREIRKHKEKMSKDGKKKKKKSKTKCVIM

Take `C[C@H](O)[C@H]1COc2c(Cl)c(-c3ccc(F)c4sc(N)c(C#N)c34)c(F)c3nc(OC[C@@]45CCCN4C[C@H](F)C5)nc(c23)N1C[C@@H]1CN(C(=O)n2ccnc2)[C@@H]1C` (single isomer, unassigned) [Compound 446]: the pIC50 in assay [1] and in assay [2] was more than 6.30 throughout.
As to `Cc1c(C#N)ncn1C(=O)N1C[C@@H](CN2CCOc3c(Cl)c(-c4ccc(F)c5sc(N)c(C#N)c45)c(F)c4nc(OC[C@@]56CCCN5C[C@H](F)C6)nc2c34)[C@H]1C1(C)CC1` (single isomer, unassigned) [Compound 452], the negative logarithm of the IC50 (pIC50) in assay [1] and in assay [2] was more than 6.30 in each case.
As for `Cc1cn(C(=O)N(C)[C@@H]2C[C@@H]3CCOc4c(Cl)c(-c5ccc(F)c6sc(N)c(C#N)c56)c(F)c5nc(OC[C@@]67CCCN6C[C@H](F)C7)nc(c45)N3C2)cn1` (single isomer, unassigned) [Compound 472], the pIC50 in assay [1] and in assay [2] was more than 6.30 each time.
Take `C[C@@H]1[C@H](N2CCOc3c(Cl)c(-c4ccc(F)c5sc(N)c(C#N)c45)c(F)c4nc(OC[C@@]56CCCN5C[C@H](F)C6)nc2c34)CCN1C(=O)n1ccnc1` (single isomer, unassigned) [Compound 474]: the pIC50 in assay [1] and in assay [2] was more than 6.30 throughout.
On to `Cc1ncn(C(=O)N2C[C@@H](CN3CCOc4c(Cl)c(-c5ccc(F)c6sc(N)c(C#N)c56)c(F)c5nc(OC[C@@]67CCCN6C[C@H](F)C7)nc3c45)[C@H]2C2(C)CC2)c1C` (single isomer, unassigned) [Compound 476], for which the pIC50 in assay [1] and in assay [2] was more than 6.30 each time.
Regarding `Cc1cn(C(=O)N2CC[C@@H](N3CCOc4c(Cl)c(-c5ccc(F)c6sc(N)c(C#N)c56)c(F)c5nc(OC[C@@]67CCCN6C[C@H](F)C7)nc3c45)[C@H]2C)c(C)n1` [Compound 403, 2-amino-4-(8-chloro-4-((2R,3R)-1-(2,4-dimethyl-1H-imidazole-1-carbonyl)-2-methylpyrrolidin-3-yl)-10-fluoro-2-(((2R,7aS)-2-fluorotetrahydro-1H-pyrrolizin-7a(5H)-yl)methoxy)-5,6-dihydro-4H-[1,4]oxazepino[5,6,7-de]quinazolin-9-yl)-7-fluorobenzo[b]thiophene-3-carbonitrile], the pIC50 in assay [1] and in assay [2] was more than 6.30 throughout.
With `C[C@@H]1[C@H](N2c3nc(OC[C@@]45CCCN4C[C@H](F)C5)nc4c(F)c(-c5ccc(F)c6sc(N)c(C#N)c56)c(Cl)c(c34)OC[C@@H]2C)CCN1C(=O)n1cnc(C#N)c1` [Compound 406, 1-((2R,3R)-3-((5S)-9-(2-amino-3-cyano-7-fluorobenzo[b]thiophen-4-yl)-8-chloro-10-fluoro-2-(((2R,7aS)-2-fluorotetrahydro-1H-pyrrolizin-7a(5H)-yl)methoxy)-5-methyl-5,6-dihydro-4H-[1,4]oxazepino [5,6,7-de]quinazolin-4-yl)-2-methylpyrrolidine-1-carbonyl)-1H-imidazole-4-carbonitrile], the pIC50 in assay [1] and in assay [2] was more than 6.30 throughout.
On to `Cc1cn(C(=O)N2CC[C@@H](N3CCCc4nc(-c5ccc(F)c6sc(N)c(C#N)c56)c(F)c5nc(OC[C@@]67CCCN6C[C@H](F)C7)nc3c45)[C@H]2C)c(C)n1` [Compound 409, 2-amino-4-(10-((2R,3R)-1-(2,4-dimethyl-1H-imidazole-1-carbonyl)-2-methylpyrrolidin-3-yl)-4-fluoro-2-(((2R,7aS)-2-fluorotetrahydro-1H-pyrrolizin-7a (5H)-yl)methoxy)-7,8,9,10-tetrahydro-1,3,6,10-tetraazacyclohepta[de]naphthalen-5-yl)-7-fluorobenzo[b]thiophene-3-carbonitrile], for which the pIC50 in assay [1] and in assay [2] was more than 6.30 throughout.
As to `C=CC(=O)N1CC[C@@H](N2CCCOc3c(Cl)c(-c4ccc(F)c5sc(N)c(C#N)c45)c(F)c4nc(OC[C@@]56CCCN5C[C@H](F)C6)nc2c34)[C@H]1C` [Compound 411, 4-(4-((2R,3R)-1-acryloyl-2-methylpyrrolidin-3-yl)-9-chloro-11-fluoro-2-(((2R,7aS)-2-fluorotetrahydro-1H-pyrrolizin-7a (5H)-yl)methoxy)-4,5,6,7-tetrahydro-[1,5]oxazocino-[4,3,2-de]quinazolin-10-yl)-2-amino-7-fluorobenzo[b]thiophene-3-carbonitrile], the pIC50 in assay [1] and in assay [2] was more than 6.30 throughout.
Turning to `C[C@@H]1C(CN2CCOc3c(Cl)c(-c4ccc(F)c5sc(N)c(C#N)c45)c(F)c4nc(OC[C@@]56CCCN5C[C@H](F)C6)nc2c34)CN1C(=O)n1ccnc1` (stereo partly drawn) [Compound 413, 4-(4-(((2R)-1-(1H-imidazole-1-carbonyl)-2-methylazetidin-3-yl)methyl)-8-chloro-10-fluoro-2-(((2R,7aS)-2-fluorotetrahydro-1H-pyrrolizin-7a(5H)-yl)methoxy)-5,6-dihydro-4H-[1,4]oxazepino[5,6,7-de]quinazolin-9-yl)-2-amino-7-fluorobenzo[b]thiophene-3-carbonitrile], the pIC50 in assay [1] and in assay [2] was more than 6.30 each time.
With `C[C@@H]1CCOc2c(Cl)c(-c3ccc(F)c4sc(N)c(C#N)c34)c(F)c3nc(OC[C@@]45CCCN4C[C@H](F)C5)nc(c23)N1CC1CCCN1C(=O)n1ccnc1` (stereo partly drawn) [Compound 414, 4-((5R)-4-((1-(1H-imidazole-1-carbonyl)pyrrolidin-2-yl)methyl)-9-chloro-11-fluoro-2-(((2R,7aS)-2-fluorotetrahydro-1H-pyrrolizin-7a(5H)-yl)methoxy)-5-methyl-4,5,6,7-tetrahydro-[1,5]oxazocino[4,3,2-de]quinazolin-10-yl)-2-amino-7-fluorobenzo[b]thiophene-3-carbonitrile], the negative-log IC50 (pIC50) in assay [1] and in assay [2] was more than 6.30 in each case.
`C[C@@H]1CCOc2c(Cl)c(-c3ccc(F)c4sc(N)c(C#N)c34)c(F)c3nc(OC[C@@]45CCCN4C[C@H](F)C5)nc(c23)N1CC1CCN(C(=O)n2ccnc2)C1` (stereo partly drawn) [Compound 417, 4-((5R)-4-((1-(1H-imidazole-1-carbonyl)pyrrolidin-3-yl)methyl)-9-chloro-11-fluoro-2-(((2R, 7aS)-2-fluorotetrahydro-1H-pyrrolizin-7a(5H)-yl)methoxy)-5-methyl-4,5,6,7-tetrahydro-[1,5]oxazocino [4,3,2-de]quinazolin-10-yl)-2-amino-7-fluorobenzo [b]thiophene-3-carbonitrile]: the pIC50 in assay [1] and in assay [2] was more than 6.30 each time.
Regarding `N#Cc1c(N)sc2c(F)ccc(-c3c(Cl)c4c5c(nc(OC[C@@]67CCCN6C[C@H](F)C7)nc5c3F)N(CC3CN(C(=O)/C=C/C5CC5)C3)CCO4)c12` [Compound 418, 2-amino-4-(8-chloro-4-((1-((E)-3-cyclopropylacryloyl)azetidin-3-yl)methyl)-10-fluoro-2-(((2R,7aS)-2-fluorotetrahydro-1H-pyrrolizin-7a(5H)-yl)methoxy)-5,6-dihydro-4H-[1,4]oxazepino [5,6,7-de]quinazolin-9-yl)-7-fluorobenzo[b]thiophene-3-carbonitrile], the pIC50 in assay [1] and in assay [2] was more than 6.30 throughout.
Regarding `C[C@H](O)[C@H]1COc2c(Cl)c(-c3ccc(F)c4sc(N)c(C#N)c34)c(F)c3nc(OC[C@@]45CCCN4C[C@H](F)C5)nc(c23)N1CC1CCN(C(=O)n2ccnc2)C1` (stereo partly drawn) [Compound 419, 4-((5R)-4-((1-(1H-imidazole-1-carbonyl)pyrrolidin-3-yl)methyl)-8-chloro-10-fluoro-2-(((2R,7aS)-2-fluorotetrahydro-1H-pyrrolizin-7a(5H)-yl)methoxy)-5-((S)-1-hydroxyethyl)-5,6-dihydro-4H-[1,4]oxazepino [5,6,7-de]quinazolin-9-yl)-2-amino-7-fluorobenzo[b] thiophene-3-carbonitrile], the pIC50 in assay [1] and in assay [2] was more than 6.30 each time.

These data come from patent publication US12606572B2, “Substituted heterocycles and uses thereof” (Kumquat Biosciences Inc., priority 2023, dated 2026).
